In article PMC10263210, “Design, Synthesis and Biological Evaluation of Novel MDH Inhibitors Targeting Tumor Microenvironment” (Pharmaceuticals, 2023) one finds IC50 and melting point data, which are given here for 20 compounds.

One data set concerns the target T1, human recombinant MDH1 (Homo sapiens, UniProt P40925).
T1 construct: purchased BioVision
T1 sequence (P40925 1-334): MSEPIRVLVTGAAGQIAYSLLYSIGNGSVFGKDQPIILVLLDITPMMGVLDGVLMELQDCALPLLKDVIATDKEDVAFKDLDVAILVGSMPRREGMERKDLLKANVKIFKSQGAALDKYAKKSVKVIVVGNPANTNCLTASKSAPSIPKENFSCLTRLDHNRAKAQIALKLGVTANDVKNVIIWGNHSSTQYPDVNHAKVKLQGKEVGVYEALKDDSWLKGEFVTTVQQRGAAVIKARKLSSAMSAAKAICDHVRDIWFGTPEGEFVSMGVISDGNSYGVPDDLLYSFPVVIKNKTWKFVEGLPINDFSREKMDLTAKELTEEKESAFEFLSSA
As to the kind of experiment: MDH1 enzyme activity assay (oxaloacetate-dependent NADH oxidation). In kind it is biochemical. Particulars: means of three experiments. The source says:
(§1) To develop the dual inhibitors of MDH1 and MDH2, we screened the newly synthesized LW1497 derivatives using MDH and MDH2 enzyme assays. LW1497 was used as the positive control for the MDH1/2 dual inhibitor. We evaluated the ability of the synthesized compounds to inhibit human recombinant MDH1 and MDH2 enzymatic activity using an oxaloacetate-dependent NADH oxidation assay (Table 1, Table 2, Table 3, Table 4, Table 5 and Table 6). Our SAR optimization strategy focused on four different parts of LW1497: (A) the introduction of various groups at different positions on the amide phenyl ring; (B) the replacement of the 3-(4-(2,4,4-trimethylpentan-2-yl) alkyl chain; (C) the alteration of the amide portion; and (D) the modification of the oxypropanamide linker portion (Figure 1).
(§2) The activities of MDH1 and MDH2 were confirmed using an oxaloacetate-dependent NADH oxidation assay. Experiments were conducted using 100 mM of potassium phosphate buffer (pH 7.4) and human recombinant MDH1 (BioVision) and MDH2 (BioVision), and the results were obtained by measuring the absorbance at 340 nm. Enzyme activity was measured using a plate reader at a wavelength of 340 nm.

The next data set deals with H460 lung cancer cells. Description: Cell growth inhibition assay (SRB), H460. It is filed as cell-based. Conditions: Homo sapiens, NCI-H460, means of three experiments, read-out: Cell Viability IC50 H460. Here is the method: (§3) At the same time, we investigated the effect of the compounds on the growth inhibition of A549 and H460 lung cancer cells bearing KRAS and LKB1 mutations. […] Compound 50 containing a piperidine linker was selected for further analysis.
(§4) Human lung carcinoma A549 cells were cultured in Dulbecco’s modified Eagle’s medium and H460 cells were cultured in RPMI 1640 medium containing 10% fetal bovine serum and 1% penicillin/streptomycin at 37 °C with a 5% Co2 hypoxia experimental condition. The cells were grown in the hypoxia chamber (1% O2, 94% N2, and 5% Co2 in a multigas incubator)
(§5) Cell growth inhibition was assessed using sulforhodamine B (SRB) as described in [34]. The cells were fixed with 10% formalin (Sigma-Aldrich) and stained with 0.4% SRB. Protein-bound dye was dissolved in 10 mM of Tris, and its optical density was measured at 540 nm.

For a further data set, the target named is T2, human recombinant MDH2 (Homo sapiens, UniProt P40926).
T2 construct: purchased BioVision
T2 sequence (P40926 25-338): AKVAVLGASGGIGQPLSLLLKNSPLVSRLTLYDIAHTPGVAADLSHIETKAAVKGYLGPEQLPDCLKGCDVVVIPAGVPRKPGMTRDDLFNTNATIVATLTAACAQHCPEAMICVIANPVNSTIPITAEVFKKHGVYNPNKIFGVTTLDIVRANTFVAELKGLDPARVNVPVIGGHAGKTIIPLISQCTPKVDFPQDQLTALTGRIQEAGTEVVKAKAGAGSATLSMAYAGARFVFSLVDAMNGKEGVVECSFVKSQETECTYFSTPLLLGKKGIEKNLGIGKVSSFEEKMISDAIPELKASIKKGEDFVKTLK
As to the kind of experiment: MDH2 enzyme activity assay (oxaloacetate-dependent NADH oxidation). In kind it is biochemical. Particulars: means of three experiments.
Description: as §1, §2

The test system of a further data set is A549 lung cancer cells. Description: Cell growth inhibition assay (SRB), A549. In kind it is cell-based. Conditions: Homo sapiens, means of three experiments, read-out: Cell Viability IC50 A549. Here is the method: as §3, §4, §5

The structures appear in SMILES notation.

The IC50 is the point on the concentration scale where inhibition reaches its midpoint. A word on the melting point: it is the temperature, or range, at which the solid turns liquid.

In the case of `COc1cccc(NC(=O)CCOc2ccc(C(C)(C)CC(C)(C)C)cc2)c1` [Compound 5a, N-(3-Methoxyphenyl)-3-(4-(2,4,4-trimethylpentan-2-yl)phenoxy)propanamide], the melting point is 97 to 99 °C. Also, the IC50 on human recombinant MDH1 is 6.18 ± 0.74 µM. Further, the IC50 in the data set with H460 lung cancer cells came to 8.83 ± 0.34 µM. In addition, the IC50 at human recombinant MDH2 amounted to 1.5 ± 0.01 µM. Moreover, the half-inhibitory concentration (IC50) in the data set on A549 lung cancer cells was found to be 11.1 ± 0.77 µM.
`CC(C)(C)CC(C)(C)c1ccc(OCCC(=O)Nc2cccc(C#N)c2)cc1` [Compound 5b, N-(3-Cyanophenyl)-3-(4-(2,4,4-trimethylpentan-2-yl)phenoxy)propanamide] displayed a melting point of 112 to 114 °C. Besides, the IC50 at human recombinant MDH1 stood at 6.96 ± 0.12 µM. The IC50 in the data set with H460 lung cancer cells stood at 5.84 ± 0.74 µM. Further, the IC50 on human recombinant MDH2 turned out to be 2 ± 0.05 µM. Moreover, in the data set with A549 lung cancer cells, the IC50 was found to be 5.25 ± 0.21 µM.
In the case of `CC(C)(C)CC(C)(C)c1ccc(OCCC(=O)Nc2cccc(C(F)(F)F)c2)cc1` [Compound 5c, N-(3-(Trifluoromethyl)phenyl)-3-(4-(2,4,4-trimethylpentan-2-yl)phenoxy)propanamide], the melting point is 88 to 90 °C. Also, the half-maximal inhibitory concentration (IC50) at human recombinant MDH1 worked out at 8.35 ± 2.86 µM. Moreover, the IC50 in the data set on H460 lung cancer cells was found to be 5.68 ± 0.23 µM. Also, on human recombinant MDH2, the half-inhibitory concentration (IC50) came out at 1.04 µM. Also, the IC50 in the data set with A549 lung cancer cells worked out at 6.47 ± 0.06 µM.
Turning to `CC(C)(C)CC(C)(C)c1ccc(OCCC(=O)Nc2cccc(OC(F)(F)F)c2)cc1` [Compound 5d, N-(3-(Trifluoromethoxy)phenyl)-3-(4-(2,4,4-trimethylpentan-2-yl)phenoxy)propanamide], the IC50 on human recombinant MDH1 stood at 0.94 ± 0.05 µM; with H460 lung cancer cells, 6.81 ± 0.04 µM; at human recombinant MDH2, 1.24 ± 0.13 µM; in the data set on A549 lung cancer cells, 6.42 ± 0.06 µM.
The corresponding values for `CC(C)(C)CC(C)(C)c1ccc(OCCC(=O)Nc2ccccc2OC(F)(F)F)cc1` [Compound 5e, N-(2-(Trifluoromethoxy)phenyl)-3-(4-(2,4,4-trimethylpentan-2-yl)phenoxy)propanamide] are 3.14 ± 0.14 µM, more than 10 µM, 3.09 ± 0.2 µM and more than 10 µM.
As for `CC(C)(C)CC(C)(C)c1ccc(OCCC(=O)Nc2ccc(OC(F)(F)F)cc2)cc1` [Compound 5f, N-(4-(Trifluoromethoxy)phenyl)-3-(4-(2,4,4-trimethylpentan-2-yl)phenoxy)propanamide], the IC50 on human recombinant MDH1 worked out at 3.45 ± 0.07 µM; in the data set on H460 lung cancer cells, 3.77 ± 0.02 µM; on human recombinant MDH2 it was 2.12 ± 0.21 µM; in the data set on A549 lung cancer cells it was 5.97 ± 0.71 µM.
In the case of `CC(C)(C)CCc1ccc(OCCC(=O)Nc2cccc(OC(F)(F)F)c2)cc1` [Compound 14], the IC50 was determined as 3.05 ± 0.29 µM on human recombinant MDH1, 12.8 ± 1.36 µM in the data set on H460 lung cancer cells, 1.53 ± 0.08 µM on human recombinant MDH2 and 14.44 ± 0.1 µM in the data set with A549 lung cancer cells.
For the compound `CC(C)(C)CNc1ccc(OCCC(=O)Nc2cccc(OC(F)(F)F)c2)cc1` [Compound 21, 3-(4-(Neopentylamino)phenoxy)-N-(3-(trifluoromethoxy)phenyl)propanamide], the IC50 is more than 5 µM on human recombinant MDH1, more than 10 µM in the data set with H460 lung cancer cells, more than 5 µM on human recombinant MDH2 and more than 10 µM in the data set with A549 lung cancer cells.
Consider `CN(CC(C)(C)C)c1ccc(OCCC(=O)Nc2cccc(OC(F)(F)F)c2)cc1` [Compound 22, 3-(4-(Methyl(neopentyl)amino)phenoxy)-N-(3-(trifluoromethoxy)phenyl)propanamide], for which the IC50 is more than 5 µM at human recombinant MDH1, more than 10 µM with H460 lung cancer cells, 3.13 ± 0.29 µM at human recombinant MDH2 and more than 10 µM with A549 lung cancer cells.
Take `CC(C)(O)CC(C)(C)c1ccc(OCCC(=O)Nc2cccc(OC(F)(F)F)c2)cc1` [Compound 30, 3-(4-(4-Hydroxy-2,4-dimethylpentan-2-yl)phenoxy)-N-(3-(trifluoromethoxy)phenyl)propanamide]: the figures for the IC50 on human recombinant MDH1, on human recombinant MDH2 and with A549 lung cancer cells were more than 5 µM, more than 5 µM and 8.28 ± 0.76 µM, respectively.
In turn, `O=C(CCOc1ccc(-c2ccccc2)cc1)Nc1cccc(OC(F)(F)F)c1` [Compound 35a, 3-([1,1′-Biphenyl]-4-yloxy)-N-(3-(trifluoromethoxy)phenyl)propanamide] showed a melting point of 132 to 134 °C. Moreover, the IC50 at human recombinant MDH1 amounted to 0.78 ± 0.08 µM. Besides, the IC50 in the data set on H460 lung cancer cells was more than 10 µM. For the same compound, the IC50 on human recombinant MDH2 worked out at 1.38 ± 0.59 µM. Moreover, the IC50 in the data set on A549 lung cancer cells is more than 10 µM.
In turn, `O=C(CCOc1ccc(-c2ccc(F)cc2)cc1)Nc1cccc(OC(F)(F)F)c1` [Compound 35b, 3-((4′-Fluoro-[1,1′-biphenyl]-4-yl)oxy)-N-(3-(trifluoromethoxy)phenyl)propanamide] came in with a melting point of 101 to 103 °C. In addition, at human recombinant MDH1, the IC50 is more than 5 µM. The 50% inhibitory concentration (IC50) in the data set with H460 lung cancer cells is more than 10 µM. For the same compound, the half-maximal inhibitory concentration (IC50) on human recombinant MDH2 was more than 5 µM. In addition, in the data set with A549 lung cancer cells, the IC50 was more than 10 µM.
In the case of `O=C(CCOc1ccc2ccccc2c1)Nc1cccc(OC(F)(F)F)c1` [Compound 39a, 3-(Naphthalen-2-yloxy)-N-(3-(trifluoromethoxy)phenyl)propanamide], the melting point is 82 to 85 °C. Further, on human recombinant MDH1, the IC50 was more than 5 µM. The IC50 with H460 lung cancer cells was more than 20 µM. In addition, the IC50 on human recombinant MDH2 is more than 5 µM. In addition, in the data set with A549 lung cancer cells, the IC50 is more than 20 µM.
`O=C(CCOc1ccc2ccc(Br)cc2c1)Nc1cccc(OC(F)(F)F)c1` [Compound 39b] showed a melting point of 113 to 115 °C. Further, on human recombinant MDH1, the half-maximal inhibitory concentration (IC50) came out at 1.61 ± 0.25 µM. In addition, the IC50 with H460 lung cancer cells is 14.86 ± 0.07 µM. Besides, on human recombinant MDH2, the IC50 is more than 5 µM. Further, the IC50 with A549 lung cancer cells worked out at 14.2 ± 0.2 µM.
Compound `O=C(CCOc1ccc2cc(Br)ccc2c1)Nc1cccc(OC(F)(F)F)c1` [Compound 39c, 3-((6-Bromonaphthalen-2-yl)oxy)-N-(3-(trifluoromethoxy)phenyl)propanamide] showed a melting point of 128 to 130 °C. The IC50 on human recombinant MDH1 stood at 1.61 ± 0.21 µM. Besides, in the data set on H460 lung cancer cells, the IC50 is 14.8 ± 0.18 µM. The half-maximal inhibitory concentration (IC50) at human recombinant MDH2 was more than 5 µM. Further, the IC50 in the data set on A549 lung cancer cells amounted to 17.7 ± 0.18 µM.
In the case of `O=C(CCOc1ccc2cc(F)ccc2c1)Nc1cccc(OC(F)(F)F)c1` [Compound 39d, 3-((6-Fluoronaphthalen-2-yl)oxy)-N-(3-(trifluoromethoxy)phenyl)propanamide], the melting point fell in the range of 102 to 104 °C. Further, the half-inhibitory concentration (IC50) on human recombinant MDH1 was 2.25 ± 0.77 µM. For the same compound, on human recombinant MDH2, the IC50 came out at 18.3 ± 1.8 µM. Further, the IC50 in the data set on A549 lung cancer cells was more than 20 µM.
With `CC(C)(C)CC(C)(C)c1ccc(OCCNS(=O)(=O)c2cccc(OC(F)(F)F)c2)cc1` [Compound 44b, 3-(Trifluoromethoxy)-N-(2-(4-(2,4,4-trimethylpentan-2-yl)phenoxy)ethyl)benzenesulfonamide], the half-inhibitory concentration (IC50) in the data set on H460 lung cancer cells is 7.61 ± 0.24 µM; on human recombinant MDH2, more than 5 µM; in the data set with A549 lung cancer cells, 7.32 ± 0.02 µM.
Regarding `CC(C)(C)CC(C)(C)c1ccc(NCCC(=O)Nc2cccc(OC(F)(F)F)c2)cc1` [Compound 56, N-(3-(Trifluoromethoxy)phenyl)-3-((4-(2,4,4-trimethylpentan-2-yl)phenyl)amino)propanamide], the IC50 was determined as 1.79 ± 0.04 µM at human recombinant MDH1, 5.3 ± 0.01 µM with H460 lung cancer cells, 3.18 ± 0.18 µM at human recombinant MDH2 and 6.06 ± 0.01 µM with A549 lung cancer cells.
For the compound `CC(C)N(CCC(=O)Nc1cccc(OC(F)(F)F)c1)c1ccc(C(C)(C)CC(C)(C)C)cc1` [Compound 57b, 3-(Isopropyl(4-(2,4,4-trimethylpentan-2-yl)phenyl)amino)-N-(3-(trifluoromethoxy)phenyl)propanamide], the half-inhibitory concentration (IC50) turned out to be 1.61 ± 0.02 µM at human recombinant MDH1, 6.06 ± 0.06 µM in the data set with H460 lung cancer cells, 1.09 ± 0.06 µM on human recombinant MDH2 and 6.47 ± 0.06 µM in the data set on A549 lung cancer cells.
Take `CC(C)(C)CC(C)(C)c1ccc(N(CCC(=O)Nc2cccc(OC(F)(F)F)c2)C2CCC2)cc1` [Compound 57c, 3-(Cyclobutyl(4-(2,4,4-trimethylpentan-2-yl)phenyl)amino)-N-(3-(trifluoromethoxy)phenyl)propanamide]: the IC50 at human recombinant MDH1 turned out to be 2.16 ± 0.01 µM; in the data set with H460 lung cancer cells, 7.11 ± 0.03 µM; on human recombinant MDH2, 1.18 ± 0.01 µM; in the data set with A549 lung cancer cells it was 7.24 ± 0.11 µM.
